Like-named read-outs stand apart in the source and are kept apart here.
Tests used:
[1] = tested on: PfCRT; experiment: Test of solutes as potential co-substrates for influx of VF-6 via PfCRT into the oocyte; type: cell-based, Plasmodium falciparum; parameters: key: X: Compounds that have been tested as potential co-substrates but are not required for influx of VF-6 via PfCRT into the oocyte; settings: X = tested
[2] = molecular target: T1, PfCRT^3D7 (Plasmodium falciparum, UniProt Q8IBZ9); experiment: cell-based; type: cell-based
Procedure, shortened: (§1)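 Oocytes (ten per treatment, ≥4 independent frogs/days) were preloaded by injecting VF-6 in 25 nL ND96 at pH 5.0, 5.5, 6.0 or 7.0, or Na^+-free choline buffer, then uptake run 1.5 h, 27.5 °C, ND96 pH 5.5 by default. Internal concentrations assumed ~400 nL oocyte volume.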

[3] = molecular target: T2, PfCRT^Ecu1110 (Plasmodium falciparum, UniProt Q9N623, A220S/I356L/K76T/N326D); experiment: cell-based; type: cell-based; settings: […]
Procedure, shortened: as §1

[4] = molecular target: T3, PfCRT^Dd2 (Plasmodium falciparum, UniProt Q9N623, A220S/I356T/K76T/M74I/N326S/N75E/Q271E/R371I); experiment: cell-based; type: cell-based; settings: […]; for activity at 45000 µM: [test solute]i = 45 mM (30 mM for some solutes due to solubility)
Procedure, shortened: as §1

[5] = molecular target: T4, PfNT1 (Plasmodium falciparum, UniProt Q8IDM6); experiment: cell-based; type: cell-based; settings: for activity at 5000 µM: total [3H]CQ transport
T4 construct: expressed in transfected cells; host or cells: Xenopus laevis oocytes (stage V-VI), cRNA-injected
Procedure, shortened: as §1

[6] = tested on: non-expressing oocytes; type: cell-based, Xenopus laevis; settings: total [3H]CQ transport; for Uptake of [3H]CQ (% non-expressing oocyte control), trans-stimulation: non-expressing oocytes, normalised to the oocyte type control; for Uptake of [3H]CQ (% PfCRTDd2 control), trans-stimulation, non-expressing oocytes: mean ± SEM, SEM
Procedure, shortened: as §1

[7] = molecular target: T2, PfCRT^Ecu1110; experiment: [3H]CQ uptake into Xenopus oocytes, cis-inhibition by unlabelled solute; type: cell-based
Procedure, shortened: (§2)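 Each treatment used ten oocytes, repeated in at least four experiments on different days with oocytes from different frogs. Conditions: ND96 pH 5.5, 27.5 °C, 1.5 h; read-out by scintillation counting.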

[8] = molecular target: T3, PfCRT^Dd2; experiment: as above; type: cell-based
Procedure, shortened: as §2

[9] = tested on: non-expressing oocytes; experiment: cells; type: cell-based, Xenopus laevis; settings: Xenopus laevis, total [3H]CQ transport; for inhibition at 500 µM: [test solute] = 0.5 mM; for inhibition at 1000 µM: [test solute] = 1 mM; for inhibition at 2000 µM: [test solute] = 2 mM
Procedure, shortened: as §2

[10] = molecular target: T1, PfCRT^3D7; experiment: cell-based; type: cell-based; settings: total [3H]CQ transport; for inhibition at 500 µM: [test solute] = 0.5 mM; for inhibition at 1000 µM: [test solute] = 1 mM; for inhibition at 2000 µM: [test solute] = 2 mM
Procedure, shortened: as §2

[11] = tested on: PfCRT; experiment: Influx of VF-6 via PfCRT into the oocyte, solutes tested as potential co-substrates; type: cell-based, Plasmodium falciparum; parameters: key: X: Compounds that have been tested as potential co-substrates but are not required for influx of VF-6 via PfCRT into the oocyte; settings: X marks the solute
[12] = read-out: PfCRT-mediated [3H]CQ transport, cis-inhibition (% PfCRTEcu1110 control)
[13] = read-out: Uptake of [3H]CQ (% PfCRTDd2 control), cis-inhibition, PfCRTEcu1110, SEM
[14] = read-out: Uptake of [3H]CQ (% PfCRTEcu1110 control), cis-inhibition
[15] = read-out: [3H]CQ transport (% PfCRTEcu1110 control), cis-inhibition, PfCRTEcu1110, SEM
[16] = read-out: PfCRT-mediated [3H]CQ transport, cis-inhibition (% PfCRTDd2 control)
[17] = read-out: Uptake of [3H]CQ (% PfCRTDd2 control), cis-inhibition
[18] = read-out: Uptake of [3H]CQ (% PfCRTDd2 control), cis-inhibition, PfCRTDd2, SEM
[19] = read-out: [3H]CQ transport (% PfCRTDd2 control), cis-inhibition, PfCRTDd2, SEM
[20] = Oocyte, mean ± SEM, SEM, read-out: Uptake of [3H]CQ (% PfCRTDd2 control), cis-inhibition, non-expressing oocytes
[21] = non-expressing oocytes, normalised to the oocyte type control, read-out: Uptake of [3H]CQ (% non-expressing oocyte control), cis-inhibition
[22] = PfCRT3D7 oocytes, normalised to the oocyte type control, read-out: Uptake of [3H]CQ (% PfCRT3D7 control), cis-inhibition
[23] = mean ± SEM, SEM, read-out: Uptake of [3H]CQ (% PfCRTDd2 control), cis-inhibition, PfCRT3D7

T1 sequence (Q8IBZ9 59-398): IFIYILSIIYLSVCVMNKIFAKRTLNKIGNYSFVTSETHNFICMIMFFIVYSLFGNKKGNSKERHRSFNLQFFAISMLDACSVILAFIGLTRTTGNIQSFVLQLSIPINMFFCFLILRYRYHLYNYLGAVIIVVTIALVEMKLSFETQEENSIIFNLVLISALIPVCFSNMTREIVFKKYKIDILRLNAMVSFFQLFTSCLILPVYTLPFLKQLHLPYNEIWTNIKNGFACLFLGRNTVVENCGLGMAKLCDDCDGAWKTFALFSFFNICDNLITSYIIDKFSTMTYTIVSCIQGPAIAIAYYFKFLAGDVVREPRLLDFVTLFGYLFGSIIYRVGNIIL
T2 sequence (Q9N623 whole entry A220S/I356L/K76T/N326D): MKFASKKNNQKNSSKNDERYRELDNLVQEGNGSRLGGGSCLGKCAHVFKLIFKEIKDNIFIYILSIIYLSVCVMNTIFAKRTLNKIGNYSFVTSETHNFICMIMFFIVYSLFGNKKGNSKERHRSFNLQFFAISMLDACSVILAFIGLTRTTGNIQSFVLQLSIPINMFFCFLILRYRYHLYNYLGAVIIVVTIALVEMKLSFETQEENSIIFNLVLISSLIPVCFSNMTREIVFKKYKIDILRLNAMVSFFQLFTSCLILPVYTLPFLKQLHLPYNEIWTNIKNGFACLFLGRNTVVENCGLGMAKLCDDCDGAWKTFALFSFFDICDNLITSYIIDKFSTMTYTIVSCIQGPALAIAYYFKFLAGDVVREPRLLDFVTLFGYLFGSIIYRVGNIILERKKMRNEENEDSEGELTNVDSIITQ
T4 sequence (Q8IDM6 whole entry): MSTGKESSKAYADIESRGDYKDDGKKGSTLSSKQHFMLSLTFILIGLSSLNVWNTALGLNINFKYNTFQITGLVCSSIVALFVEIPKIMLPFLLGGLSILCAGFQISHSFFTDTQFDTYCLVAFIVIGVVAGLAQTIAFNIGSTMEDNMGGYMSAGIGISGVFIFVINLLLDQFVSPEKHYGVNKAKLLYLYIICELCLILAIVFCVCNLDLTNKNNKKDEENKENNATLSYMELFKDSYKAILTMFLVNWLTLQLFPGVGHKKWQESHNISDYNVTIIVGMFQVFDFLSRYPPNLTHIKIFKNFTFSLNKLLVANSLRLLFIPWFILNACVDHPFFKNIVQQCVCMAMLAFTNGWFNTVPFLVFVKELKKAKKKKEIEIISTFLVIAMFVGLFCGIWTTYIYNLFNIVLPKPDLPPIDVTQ
T3 sequence (Q9N623 whole entry A220S/I356T/K76T/M74I/N326S/N75E/Q271E/R371I): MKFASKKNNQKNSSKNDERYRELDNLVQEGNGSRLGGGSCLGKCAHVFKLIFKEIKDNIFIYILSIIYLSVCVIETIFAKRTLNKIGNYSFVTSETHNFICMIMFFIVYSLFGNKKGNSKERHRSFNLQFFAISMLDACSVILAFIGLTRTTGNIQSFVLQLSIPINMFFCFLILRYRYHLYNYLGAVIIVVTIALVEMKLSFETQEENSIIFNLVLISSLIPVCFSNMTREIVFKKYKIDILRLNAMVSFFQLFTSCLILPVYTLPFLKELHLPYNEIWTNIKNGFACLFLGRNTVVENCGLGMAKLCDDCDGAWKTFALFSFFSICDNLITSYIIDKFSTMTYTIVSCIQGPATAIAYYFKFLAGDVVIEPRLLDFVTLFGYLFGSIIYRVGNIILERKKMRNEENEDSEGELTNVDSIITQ

CC(C)C[C@H](N)C(=O)O [L-leucine]
Tested as potential co-substrate but not required for influx of VF-6 via PfCRT into the oocyte [1]: X | activity at 5000 µM ([2]; PfCRT3D7 oocytes, [test solute]i = 5 mM, total [3H]CQ transport, normalised to the oocyte type control, read-out: Uptake of [3H]CQ (% PfCRT3D7 control), trans-stimulation): 100 ± 2.4% | [3H]CQ transport (% PfCRT3D7 control), trans-stimulation, PfCRT3D7 ([2]; SEM): 0.3 ± 0.02 % PfCRT3D7 control | activity at 5000 µM ([2]; [test solute]i = 5 mM (intracellular), PfCRT3D7 oocytes, normalised to oocyte type control, read-out: PfCRT-mediated [3H]CQ transport, trans-stimulation (% PfCRT3D7 control)): 98 ± 3.4% | activity at 45000 µM ([2]; SEM, read-out: Uptake of [3H]CQ (% PfCRTDd2 control), trans-stimulation, PfCRT3D7): 3.2 ± 0.04% | activity at 45000 µM ([2]; read-out: PfCRT-mediated [3H]CQ transport, trans-stimulation (% PfCRT3D7 control)): 95 ± 4.1% | activity at 45000 µM ([2]; read-out: Uptake of [3H]CQ (% PfCRT3D7 control), trans-stimulation): 97 ± 2.8% | activity at 5000 µM ([2]; total [3H]CQ transport, [test solute]i = 5 mM (intracellular), mean ± SEM, SEM, read-out: Uptake of [3H]CQ (% PfCRTDd2 control), trans-stimulation, PfCRT3D7): 3.3 ± 0.03% | activity at 5000 µM ([3]; pH 5.5, read-out: PfCRT-mediated [3H]CQ transport, trans-stimulation (% PfCRTEcu1110 control), [test solute]i = 5 mM (intracellular), PfCRTEcu1110 oocytes, normalised to oocyte type control): 96 ± 2.6% | activity at 5000 µM ([3]; pH 5.5, read-out: Uptake of [3H]CQ (% PfCRTEcu1110 control), trans-stimulation, PfCRTEcu1110 oocytes, [test solute]i = 5 mM, total [3H]CQ transport, normalised to the oocyte type control): 98 ± 3.2% | activity at 45000 µM ([3]; pH 5.5, read-out: Uptake of [3H]CQ (% PfCRTEcu1110 control), trans-stimulation, PfCRTEcu1110 oocytes, [test solute]i = 45 mM (30 mM for some solutes due to solubility), total [3H]CQ transport, normalised to the oocyte type control): 100 ± 3.5% | activity at 5000 µM ([3]; read-out: Uptake of [3H]CQ (% PfCRTDd2 control), trans-stimulation, PfCRTEcu1110, total [3H]CQ transport, [test solute]i = 5 mM (intracellular), mean ± SEM, SEM): 35 ± 1.3% | activity at 45000 µM ([3]; read-out: Uptake of [3H]CQ (% PfCRTDd2 control), trans-stimulation, PfCRTEcu1110, total [3H]CQ transport, [test solute]i = 45 mM (intracellular; 30 mM for some solutes due to solubility), mean ± SEM, SEM): 36 ± 1.7% | activity at 5000 µM ([4]; pH 5.5, read-out: PfCRT-mediated [3H]CQ transport, trans-stimulation (% PfCRTDd2 control), [test solute]i = 5 mM (intracellular), PfCRTDd2 oocytes, normalised to oocyte type control): 95 ± 3.4% | activity at 5000 µM ([4]; pH 5.5, read-out: Uptake of [3H]CQ (% PfCRTDd2 control), trans-stimulation, PfCRTDd2, total [3H]CQ transport, [test solute]i = 5 mM (intracellular), mean ± SEM, SEM): 97 ± 0.7% | activity at 5000 µM ([4]; pH 5.5, read-out: Uptake of [3H]CQ (% PfCRTDd2 control), trans-stimulation, PfCRTDd2 oocytes, [test solute]i = 5 mM, total [3H]CQ transport, normalised to the oocyte type control): 97 ± 0.7% | activity at 45000 µM ([4]; pH 5.5, read-out: Uptake of [3H]CQ (% PfCRTDd2 control), trans-stimulation, PfCRTDd2 oocytes, total [3H]CQ transport, normalised to the oocyte type control): 98 ± 2.2% | activity at 5000 µM ([4]; pH 5.5, read-out: [3H]CQ transport (% PfCRTDd2 control), trans-stimulation, PfCRTDd2, trans-stimulation, [test solute]i = 5 mM (injected), PfCRT-mediated component (background subtracted), mean ± SEM, SEM): 95 ± 3.4% | activity at 45000 µM ([4]; pH 5.5, read-out: [3H]CQ transport (% PfCRTDd2 control), trans-stimulation, PfCRTDd2, trans-stimulation, PfCRT-mediated component (background subtracted), mean ± SEM, SEM): 96 ± 2.9% | activity at 5000 µM ([5]; PfNT1 oocytes, [test solute]i = 5 mM, normalised to the oocyte type control, read-out: Uptake of [3H]CQ (% PfNT1 control), trans-stimulation): 100 ± 3.8% | activity at 45000 µM ([5]; SEM, read-out: Uptake of [3H]CQ (% PfCRTDd2 control), trans-stimulation, PfNT1): 2.3 ± 0.09% | activity at 45000 µM ([5]; read-out: Uptake of [3H]CQ (% PfNT1 control), trans-stimulation): 98 ± 3.3% | activity at 5000 µM ([5]; [test solute]i = 5 mM (intracellular), mean ± SEM, SEM, read-out: Uptake of [3H]CQ (% PfCRTDd2 control), trans-stimulation, PfNT1): 3% | Uptake of [3H]CQ (% non-expressing oocyte control), trans-stimulation ([6]; [test solute]i = 5 mM): 100 ± 3.2 % non-expressing oocyte control | Uptake of [3H]CQ (% non-expressing oocyte control), trans-stimulation ([6]; [test solute]i = 45 mM (30 mM for some solutes due to solubility)): 100 ± 3.3 % non-expressing oocyte control | Uptake of [3H]CQ (% PfCRTDd2 control), trans-stimulation, non-expressing oocytes ([6]; [test solute]i = 5 mM (intracellular)): 3.2 ± 0.08 % PfCRTDd2 control | Uptake of [3H]CQ (% PfCRTDd2 control), trans-stimulation, non-expressing oocytes ([6]; [test solute]i = 45 mM (intracellular; 30 mM for some solutes due to solubility)): 3.2 ± 0.05 % PfCRTDd2 control | inhibition at 500 µM [7, 12]: 99 ± 5.1% | inhibition at 1000 µM [7, 12]: 97 ± 3.1% | inhibition at 2000 µM [7, 12]: 99 ± 2.1% | inhibition at 500 µM [7, 13]: 33 ± 1.6% | inhibition at 1000 µM [7, 13]: 32 ± 1.3% | inhibition at 2000 µM [7, 13]: 33 ± 1.5% | inhibition at 500 µM [7, 14]: 102 ± 4.2% | inhibition at 1000 µM [7, 14]: 98 ± 4.2% | inhibition at 2000 µM [7, 14]: 100 ± 3.2% | inhibition at 500 µM [7, 15]: 30 ± 1.5% | inhibition at 1000 µM [7, 15]: 29 ± 0.6% | inhibition at 2000 µM [7, 15]: 30 ± 0.7% | inhibition at 500 µM [8, 16]: 98 ± 4.7% | inhibition at 1000 µM [8, 16]: 96 ± 4.2% | inhibition at 2000 µM [8, 16]: 98 ± 4.7% | inhibition at 500 µM [8, 17]: 100 ± 3.8% | inhibition at 1000 µM [8, 17]: 98 ± 3.1% | inhibition at 2000 µM [8, 17]: 100 ± 1.9% | inhibition at 500 µM [8, 18]: 100 ± 3.8% | inhibition at 1000 µM [8, 18]: 98 ± 3.1% | inhibition at 2000 µM [8, 18]: 100 ± 1.9% | inhibition at 500 µM [8, 19]: 98 ± 4.7% | inhibition at 2000 µM [8, 19]: 98 ± 4.7% | inhibition at 500 µM [9, 20]: 3.2 ± 0.08% | inhibition at 1000 µM [9, 20]: 2.8 ± 0.07% | inhibition at 2000 µM [9, 20]: 2.9 ± 0.04% | inhibition at 500 µM [9, 21]: 100 ± 3.7% | inhibition at 1000 µM [9, 21]: 99 ± 4.6% | inhibition at 2000 µM [9, 21]: 99 ± 5.7% | inhibition at 500 µM [10, 22]: 98 ± 3.6% | inhibition at 1000 µM [10, 22]: 100 ± 4.7% | inhibition at 2000 µM [10, 22]: 99 ± 3.6% | inhibition at 500 µM [10, 23]: 3.2 ± 0.08% | inhibition at 1000 µM [10, 23]: 3.1 ± 0.08% | inhibition at 2000 µM [10, 23]: 3.8 ± 0.05% | Compounds that have been tested as potential co-substrates but are not required for influx of VF-6 via PfCRT into the oocyte [11]: X

From article PMC7413254 (Nature Communications, 2020)
